Measured values published in US20220040136A1, “TREATMENT OF VULVOVAGINAL DISORDERS” (University of Rochester, priority 2018, published 2022).

Tested on: C57BL/6J mice
Assay: Mouse model of LPV, DHA cream (Example 4)
Format: in vivo
Description: A total of 36 C57BL/6J mice were subjected to 6 weeks of allodynia induction using the protocol described above. Briefly, zymosan was used to induce sustained vulvar allodynia, measured by pain threshold testing. An electronic vonFrey system (MOUSEMET™, Topcat Metrology) was used to apply gradually increasing force to the vulva at the injection site, located at the midline posterior vulvar (between the vaginal opening and anus) (FIG. 7A). The hair was applied perpendicular to the vulvar surface with a gradually increasing force within a range of 0.100 g to 7.0 g (FIG. 7B). A positive response was defined as either (1) a reflexive, coordinated four extremity extension, (2) jump, or (3) immediate grooming of the vulva in response to vulvar stimulus, at which point the peak force was recorded.
During allodynia induction, mice receive weekly injections of zymosan (10 mg/ml in 10 μl saline) for a maximum of 6 injections, until a >33% reduction in pain threshold is observed for 2 consecutive weeks of testing (FIG. 7C). Pain threshold testing was performed at the same time every week, immediately prior to zymosan injection; after the first 2 weeks of injections, a determination of threshold change was performed after pain testing to determine which mice would receive additional zymosan injections. […]

SMILES: CC/C=C\C/C=C\C/C=C\C/C=C\C/C=C\C/C=C\CCC(=O)O [DHA, docosahexaenoic acid]
- mice recovered from allodynia (DHA cream group (12 mice), after 6 weeks of treatment, recovery = 70% improvement over lowest pain threshold for 2 consecutive tests): 9 mice
- first week at which mice began to recover (DHA group, week = first week of a two-week period with 70% improvement, FIG. 13): 1 week
